This data set can be described thus: gradient 5% acetonitrile 3 min, to 50% in 2 min, to 85% in 15 min, held 3 min, 100 µL/min. Particulars: column: Zorbax Extend-C18 2.1 x 50 mm; eluents: water / acetonitrile, 0.1% formic acid. In short, it runs like this:
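Data were gathered over 3 months by HPLC coupled to a quadrupole time-of-flight mass spectrometer, operated in positive and negative ionization mode. Mixtures of ~100 pure standards ran on a Zorbax Extend-C18 column (2.1 × 50 mm, 1.8 μm) at 100 μL/min, with water and acetonitrile each containing 0.1% formic acid and dead and dwell volumes of 40 μL and 900 μL. Retention time was read from adduct peaks picked by computer and checked manually.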
`COc1nn(C)cc1C(=O)NCC(=O)N1CCc2ccccc2C1` registered an RP-LC retention time of 657 s.
With `O=C(CCc1conc1-c1ccccc1)N1CCN(C2CCCCC2)CC1`, the RP-LC retention time came to 630 s.
Take `C/C=C/c1cc2c(c(=O)o1)C(=O)[C@@H](O)[C@H](C)O2`: the RP-LC retention time was found to be 695 s.
`O=C(c1ccc2cc[nH]c2c1)N1CCCN(c2cc(-c3ccc(Cl)cc3)[nH]n2)CC1` showed an RP-LC retention time of 770 s.
`COc1ccc2c(c1)C1(CCN(S(=O)(=O)c3ccccc3F)C1)C(=O)N2` (stereo not drawn) came in with an RP-LC retention time of 808 s.
Turning to `CC(C)CN1CCn2cc(S(=O)(=O)NCc3ccccc3F)cc2C1=O`, the RP-LC retention time was 792 s.
The compound `Cc1ccc(S(=O)(=O)c2cnc(N3CCN(c4ccccc4F)CC3)nc2N)cc1C` registered an RP-LC retention time of 1200 s.
The result for `CCOC(=O)Cn1c(C2CC(=O)N(c3ccc(Cl)cc3)C2)nc2ccccc21` (stereo not drawn) reads 858 s.
`O=C(Nc1cc(-c2cccs2)no1)C1CCC1` registered an RP-LC retention time of 862 s.
In the case of `CCOC(=O)c1c(C)[nH]c(C(=O)N2CCCC(C(=O)NCCc3ccco3)C2)c1C` (stereo not drawn), the RP-LC retention time amounted to 781 s.
The result for `CCCn1ccc2sc(C)c(C(=O)NC3CCCC3)c2c1=O` reads 760 s.
Compound `CC(=O)Nc1cccc2c(C(=O)NC(C)c3ccc(C)cc3C)ccnc12` (stereo not drawn) returned an RP-LC retention time of 896 s.
The result for `COc1ccc(C(=O)NC2CCN(c3cc(-c4cccs4)[nH]n3)C2)cc1OC` (stereo not drawn) reads 638 s.
The result for `O=C(CC1(O)C(=O)Nc2c(Cl)cc(Cl)cc21)c1cccc([N+](=O)[O-])c1` (stereo not drawn) reads 792 s; that for `CCS(=O)(=O)N(C)C1CCc2nn(Cc3ccccc3)c(=O)n2CC1` (stereo not drawn), 710 s.
For `COc1cccc(CNC(=O)Cn2cnc3nc(N4CCC(C(=O)NC5CC5)CC4)sc3c2=O)c1`, the RP-LC retention time came out at 646 s.
The figure for `Cc1cc(N2CCN(C(=O)c3ccc(Br)o3)CC2)nc(N2CCCC2)n1` is 636 s; for `Cc1cc(N2CCN(C)CC2)nc2ccc(NC(=O)Nc3ccc(F)cc3)cc12` it is 587 s.
The result for `COc1cc(-c2nc3ncccn3c2Nc2ccc(C)cc2C)ccc1O` reads 682 s; that for `Cc1nn(C)c(C)c1S(=O)(=O)N1CCc2nn(Cc3ccccc3)c(=O)n2CC1`, 714 s.
Consider `CCN(CC)S(=O)(=O)c1ccc(-n2cnc(C(=O)Nc3cc(C(C)(C)C)ccc3O)c2)cc1`, for which the RP-LC retention time is 1060 s.
Regarding `CCOC(=O)c1cc2n(n1)CC(C)(C(=O)NC1CCCC1)N(c1cccc(F)c1)C2=O` (stereo not drawn), the RP-LC retention time was found to be 862 s.
The figure for `CCOc1ccc(-c2cc3c(=O)n(Cc4nc(-c5ccccc5OC)no4)ncn3n2)cc1` is 1050 s; for `COCCN(Cc1cccs1)C(=O)c1nnn(-c2ccccc2)c1-c1ccccn1` it is 824 s.
As for `CCc1cccc(NC(=O)c2cn(CC)nc2S(=O)(=O)N2CCSCC2)c1`, the RP-LC retention time is 1080 s.
The result for `CCOC(=O)c1ccc(-n2ccc3nc(C)c(C(=O)OC)cc3c2=O)cc1` reads 874 s; that for `O=C1NCCCCCCN(C(=O)c2ccoc2)[C@H]2C[C@H](C(=O)N3CCc4ccccc4C3)C[C@@H]12`, 762 s; that for `O=C(NC1CCN(C(=O)c2cc(-c3cccs3)[nH]n2)CC1)c1cccs1`, 695 s.
As for `CSc1ccc(CNC(=O)C2CCCN(c3ncnc4c3oc3ccccc34)C2)cc1` (stereo not drawn), the RP-LC retention time is 786 s.
The figure for `O=C(Cc1cn2cc(Br)ccc2n1)Nc1ccc2c(c1)OCCO2` is 608 s; for `COc1cc(C(=O)N2CCC(c3nc4cccnc4n3C)C2)ccc1C` (stereo not drawn) it is 683 s; for `CCN(CC)CCNC(=O)CCC(=O)N1CCc2c(c(C(=O)N3CCCCC3)nn2C)C1` it is 573 s.
The figure for `CCS(=O)(=O)c1ccc(CC(=O)Nc2ccc(F)cc2F)cc1` is 711 s; for `CCc1ccc(S(=O)(=O)c2cnc(N3CCN(c4ccccc4OC)CC3)nc2N)cc1` it is 1080 s; for `COc1cc(OC)c(NC(=O)C2CCCN(C(=O)c3cc(C)cc(C)c3)C2)cc1Cl` (stereo not drawn) it is 1010 s.
The result for `CN(C)c1cccc(-c2nc(-c3cn(-c4ccc(F)cc4)nn3)no2)c1` reads 1100 s; that for `COc1ccc(Cl)cc1NC(=O)Cn1c(C)nc(-c2ccccn2)cc1=O`, 727 s.
Regarding `Cc1ccc(-c2nnc(-c3cccc(S(=O)(=O)N(C)C)c3)o2)cc1`, the RP-LC retention time was 986 s.
The figure for `Brc1ccc2nc(-c3ccccc3)c(Nc3ccc4c(c3)OCO4)n2c1` is 748 s; for `CN1CCn2cc(S(=O)(=O)N3CCN(c4ccccc4)CC3)cc2C1=O` it is 764 s.
The figure for `Cc1cc(N2CCN(C(=O)c3c(F)cccc3F)CC2)nc(N2CCOCC2)n1` is 613 s.
The result for `COc1cc(OC)cc(C(=O)N2CCN(c3cc(-c4cccs4)[nH]n3)CC2)c1` reads 794 s; that for `O=C(NCCC1=CCCCC1)c1ccc(-c2nccnc2N2CCCC2)cc1`, 1030 s; that for `CCCNC(=O)C1CCN(c2ccc(SCC(=O)Nc3ccccc3OCC)nn2)CC1`, 621 s.
The compound `CC(C)NC[C@H](O)COc1cccc2[nH]ccc12` came in with an RP-LC retention time of 603 s.
The figure for `CC1(C(=O)NCc2ccccc2)CN(S(C)(=O)=O)CC(=O)N1c1ccccc1F` (stereo not drawn) is 773 s; for `Cc1cc2nn(CC(=O)Nc3ccccc3)c(=O)n2c(-c2ccccc2)n1` it is 769 s; for `O=C(/C=C/c1ccccc1)NC(NC(=S)Nc1cccc2cccnc12)C(Cl)(Cl)Cl` (stereo not drawn) it is 1020 s.
The figure for `O=C(Cn1ccc2ccccc21)Nc1ccccc1OC(F)(F)F` is 610 s; for `Cc1cccc(-c2noc(C3CCCN3C(=O)NCc3ccc(F)cc3)n2)c1` (stereo not drawn) it is 974 s; for `CCN1CCN(CCNC(=O)C2CCCN(C(=O)c3[nH]c(C)c(C(=O)OC)c3C)C2)CC1` (stereo not drawn) it is 565 s.
`CCn1cc(CN2CCC(N3C(=O)C4(CCCCC4)C3c3ccncc3)CC2)c(C)n1` (stereo not drawn) yielded an RP-LC retention time of 532 s.
The result for `Cc1c(C)n(-c2ccccc2)c2ncn(CC(=O)NCc3ccco3)c(=O)c12` reads 809 s; that for `COc1ccc(-c2n[nH]c3c2C(c2cccnc2)N(c2ccc(Br)cc2)C3=O)cc1` (stereo not drawn), 768 s.
For the compound `COc1ccc(OC)c(S(=O)(=O)Nc2ccc(Oc3nc4ccccc4n4cnnc34)cc2)c1`, the RP-LC retention time amounted to 766 s.
`CCN(CC)c1ncnc2c(-c3ccccc3)cn(CC(=O)NC(C)C)c12` displayed an RP-LC retention time of 686 s.
The result for `O=C(c1cccs1)N1CCN(c2ccc(=O)n(-c3ccc(Cl)cc3)n2)CC1` reads 834 s; that for `Cc1cccc(-c2noc(-c3nn(CC(=O)NCC4CCCO4)c4ccccc34)n2)c1` (stereo not drawn), 1040 s; that for `O=C(c1ccc(OCC2CCCN2C(=O)c2ccccc2)cc1)N1CCCC1` (stereo not drawn), 789 s.
The figure for `O=C(CC1CCN(C(=O)NC2CCCCC2)CC1)N1CCN(c2ccccn2)CC1` is 598 s; for `O=C(Nc1ccc2c(c1)OCCO2)N1CCCC1c1nc(CCOCC2CCCC2)no1` (stereo not drawn) it is 896 s; for `Cc1ccc(CNc2ccc(-c3nc(-c4ccc(F)cc4)no3)cn2)cc1` it is 1250 s.
As to `Cc1ccc(-n2ncc3c(=O)n(Cc4nc(-c5ccc(F)c(Br)c5)no4)cnc32)cc1`, the RP-LC retention time came out at 1220 s.
The figure for `CCOc1ccccc1NC(=O)Cc1csc2nc(-c3ccc(OC)c(OC)c3)cn12` is 793 s; for `c1ccc(-c2ccc(CNCC3CCCO3)o2)cc1` (stereo not drawn) it is 642 s.
The figure for `CCn1c(=O)c(N2CCC(C(=O)NCCCN3CCCCC3C)CC2)nc2cccnc21` (stereo not drawn) is 632 s; for `O=C(c1cccc(OCC2CCCN(C(=O)C3CCCO3)C2)c1)N1CCCCC1` (stereo not drawn) it is 750 s; for `COc1ccccc1C(CNC(=O)c1cc(=O)c2c(C)cc(C)cc2o1)N(C)C` (stereo not drawn) it is 645 s.
The result for `Fc1ccc(Cn2cccc2-c2nc(-c3cccnc3)no2)cc1` reads 1100 s.
Turning to `CCCNC(=O)N1CCN(Cc2nc3cccnc3n2-c2cc(C)cc(C)c2)CC1`, the RP-LC retention time came out at 656 s.
In turn, `O=C(c1ccc(Cn2cncn2)cc1)N1CCN(c2ccc(F)cc2)CC1` had an RP-LC retention time of 700 s.
For `CCn1ccc2c(cc(C(=O)Nc3c(C)cccc3C)n2C)c1=O`, the RP-LC retention time turned out to be 721 s.
The result for `Cc1cc(=O)n2c(-c3ccc(NC(=O)Nc4ccc(F)c(F)c4)cc3)csc2n1` reads 776 s; that for `CCOC(=O)c1c(S(=O)(=O)N2CCC(C(=O)Nc3ncccc3C)CC2)c(C)n(C)c1C`, 632 s; that for `Cc1ccc(C)c(N2CCN(C(=O)C3CCCCN3S(=O)(=O)c3ccc(F)cc3)CC2)c1` (stereo not drawn), 1250 s.
The result for `Cc1ccc(CSc2ccc(-n3nc4c(c3C)CCC4)nn2)cc1` reads 1370 s.
As to `Cc1cc2nn(CC(=O)Nc3ccc(C)c(C)c3)c(=O)n2c(N2CCCC2)n1`, the RP-LC retention time was 1010 s.
The figure for `CCn1cc(CCNS(=O)(=O)c2ccccc2F)c2cccnc21` is 745 s.

Values taken from the METLIN SMRT retention time set (Domingo-Almenara et al. 2019).
